Where “and” joins values, the source holds several entries; their conditions need not be identical. Equal entries are not always repeated. Inconclusive results are not listed.
Tested on: mice, P1798 lymphosarcoma sc, survival or tumor weight T/C
Assay: NCI In Vivo Anticancer Drug Screen. Data for tumor model P1798 Lymphosarcoma (subcutaneous) in unknown mice
Procedure: The antitumor activity of compounds was measured in mice bearing transplantable tumors. Survival or tumor size were measured and the results are expressed as the measurement made in the treated group (T) divided by the measurement made in the vehicle treated control group (C). The tumor model used in this assay is P1798 Lymphosarcoma (subcutaneous) in unknown mice

[1] = endpoint: mean tumor weight, dose: 2.5 mg/kg/injection, schedule: Q01DX010 (ip), vehicle: saline, higher = larger tumour

O=c1cnn(C2OC(CO)C(O)C2O)c(=O)[nH]1 (stereo not drawn)
T/C (endpoint: mean tumor weight, dose: 125.0 mg/kg/injection, schedule: Q01DX010 (ip), vehicle: water, higher = larger tumour): 93 % of control
T/C (endpoint: mean tumor weight, dose: 250.0 mg/kg/injection, schedule: Q01DX010 (ip), vehicle: water, higher = larger tumour): 67 % of control
T/C (endpoint: mean tumor weight, dose: 500.0 mg/kg/injection, schedule: Q01DX010 (ip), vehicle: water, higher = larger tumour): 77 % of control
T/C (endpoint: mean tumor weight, dose: 1000.0 mg/kg/injection, schedule: Q01DX010 (ip), vehicle: water, higher = larger tumour): 75 % of control

CN(C)CC(=O)c1ccc(O)c(O)c1
T/C (endpoint: mean tumor weight, dose: 250.0 mg/kg/injection, schedule: Q01DX010 (ip), vehicle: saline, higher = larger tumour): 154 % of control

N=C(N)SCc1c2ccccc2c(CSC(=N)N)c2ccccc12
T/C (endpoint: mean tumor weight, dose: 2.5 mg/kg/injection, schedule: Q01DX011 (ip), vehicle: carboxymethylcellulose (CMC), higher = larger tumour): 85 % of control
T/C (endpoint: mean tumor weight, dose: 5.0 mg/kg/injection, schedule: Q01DX011 (ip), vehicle: carboxymethylcellulose (CMC), higher = larger tumour): 99 % of control
T/C (endpoint: mean tumor weight, dose: 10.0 mg/kg/injection, schedule: Q01DX011 (ip), vehicle: carboxymethylcellulose (CMC), higher = larger tumour): 50 % of control
T/C (endpoint: mean tumor weight, dose: 20.0 mg/kg/injection, schedule: Q01DX011 (ip), vehicle: carboxymethylcellulose (CMC), higher = larger tumour): 40 % of control

S=P(N1CC1)(N1CC1)N1CC1
T/C (endpoint: mean tumor weight, dose: 0.63 mg/kg/injection, schedule: Q01DX010 (ip), vehicle: saline, higher = larger tumour): 95 % of control
T/C (endpoint: mean tumor weight, dose: 1.25 mg/kg/injection, schedule: Q01DX010 (ip), vehicle: saline, higher = larger tumour): 64 % of control
T/C [1]: 24 % of control
T/C (endpoint: median survival time, dose: 0.75 mg/kg/injection, schedule: Q01DX010 (sc), vehicle: water, higher = longer survival): 97 % of control
T/C (endpoint: median survival time, dose: 1.5 mg/kg/injection, schedule: Q01DX010 (sc), vehicle: water, higher = longer survival): 105 % of control
T/C (endpoint: median survival time, dose: 3.0 mg/kg/injection, schedule: Q01DX010 (sc), vehicle: water, higher = longer survival): 103 % of control
T/C (endpoint: median survival time, dose: 6.0 mg/kg/injection, schedule: Q01DX010 (sc), vehicle: water, higher = longer survival): 47 % of control
T/C (endpoint: median survival time, dose: 12.0 mg/kg/injection, schedule: Q01DX010 (sc), vehicle: water, higher = longer survival): 27 % of control

CC(CCC(C)OS(C)(=O)=O)OS(C)(=O)=O (stereo not drawn)
T/C (endpoint: mean tumor weight, dose: 5.0 mg/kg/injection, schedule: Q01DX010 (ip), vehicle: carboxymethylcellulose (CMC), higher = larger tumour): 72 % of control
T/C (endpoint: mean tumor weight, dose: 10.0 mg/kg/injection, schedule: Q01DX010 (ip), vehicle: carboxymethylcellulose (CMC), higher = larger tumour): 93 % of control
T/C (endpoint: mean tumor weight, dose: 20.0 mg/kg/injection, schedule: Q01DX010 (ip), vehicle: carboxymethylcellulose (CMC), higher = larger tumour): 102 % of control
T/C (endpoint: mean tumor weight, dose: 40.0 mg/kg/injection, schedule: Q01DX010 (ip), vehicle: carboxymethylcellulose (CMC), higher = larger tumour): 83 % of control

CCCSc1ncnc2nc[nH]c12
T/C (endpoint: mean tumor weight, dose: 31.0 mg/kg/injection, schedule: Q01DX010 (ip), vehicle: carboxymethylcellulose (CMC), higher = larger tumour): 84 % of control
T/C (endpoint: mean tumor weight, dose: 62.0 mg/kg/injection, schedule: Q01DX010 (ip), vehicle: carboxymethylcellulose (CMC), higher = larger tumour): 70 % of control
T/C (endpoint: mean tumor weight, dose: 125.0 mg/kg/injection, schedule: Q01DX010 (ip), vehicle: carboxymethylcellulose (CMC), higher = larger tumour): 51 % of control and 52 % of control

CCC1=C(c2cc(Cl)c3ccccc3c2OCC(=O)O)OC(CC)(C(=O)c2cc(Cl)c3ccccc3c2OCC(=O)O)CC1 (stereo not drawn)
T/C (endpoint: mean tumor weight, dose: 30.0 mg/kg/injection, schedule: Q01DX010 (ip), vehicle: steriod suspending solution, higher = larger tumour): 94 % of control
T/C (endpoint: mean tumor weight, dose: 60.0 mg/kg/injection, schedule: Q01DX010 (ip), vehicle: steriod suspending solution, higher = larger tumour): 112 % of control
T/C (endpoint: mean tumor weight, dose: 120.0 mg/kg/injection, schedule: Q01DX010 (ip), vehicle: steriod suspending solution, higher = larger tumour): 65 % of control
T/C (endpoint: mean tumor weight, dose: 240.0 mg/kg/injection, schedule: Q01DX010 (ip), vehicle: steriod suspending solution, higher = larger tumour): 85 % of control

CC1(O)CCC2C3CCC4=CC(=O)CCC4C3CCC21C (stereo not drawn)
T/C (endpoint: mean tumor weight, dose: 75.0 mg/kg/injection, schedule: Q01DX010 (sc), vehicle: steriod suspending solution, higher = larger tumour): 116 % of control
T/C (endpoint: mean tumor weight, dose: 150.0 mg/kg/injection, schedule: Q01DX010 (sc), vehicle: steriod suspending solution, higher = larger tumour): 115 % of control
T/C (endpoint: mean tumor weight, dose: 300.0 mg/kg/injection, schedule: Q01DX010 (sc), vehicle: steriod suspending solution, higher = larger tumour): 109 % of control
T/C (endpoint: mean tumor weight, dose: 600.0 mg/kg/injection, schedule: Q01DX010 (sc), vehicle: steriod suspending solution, higher = larger tumour): 122 % of control

CCCCNc1ncnc2c1cnn2C
T/C (endpoint: mean tumor weight, dose: 6.25 mg/kg/injection, schedule: Q01DX010 (ip), vehicle: carboxymethylcellulose (CMC), higher = larger tumour): 63 % of control
T/C (endpoint: mean tumor weight, dose: 12.5 mg/kg/injection, schedule: Q01DX010 (ip), vehicle: carboxymethylcellulose (CMC), higher = larger tumour): 97 % of control
T/C (endpoint: mean tumor weight, dose: 25.0 mg/kg/injection, schedule: Q01DX010 (ip), vehicle: carboxymethylcellulose (CMC), higher = larger tumour): 57 % of control

Clc1ccc(C(c2ccccc2Cl)C(Cl)Cl)cc1 (stereo not drawn)
T/C (endpoint: mean tumor weight, dose: 62.5 mg/kg/injection, schedule: Q01DX010 (sc), vehicle: steriod suspending solution, higher = larger tumour): 85 % of control
T/C (endpoint: mean tumor weight, dose: 125.0 mg/kg/injection, schedule: Q01DX010 (sc), vehicle: steriod suspending solution, higher = larger tumour): 73 % of control
T/C (endpoint: mean tumor weight, dose: 250.0 mg/kg/injection, schedule: Q01DX010 (sc), vehicle: steriod suspending solution, higher = larger tumour): 105 % of control
T/C (endpoint: mean tumor weight, dose: 500.0 mg/kg/injection, schedule: Q01DX010 (sc), vehicle: steriod suspending solution, higher = larger tumour): 103 % of control

CO[C@H](C(=O)[C@@H](O)[C@@H](C)O)[C@@H]1Cc2cc3cc(OC4CC(OC5CC(O)C(O)C(C)O5)C(O)C(C)O4)c(C)c(O)c3c(O)c2C(=O)[C@H]1OC1CC(OC2CC(OC3CC(C)(O)C(O)C(C)O3)C(O)C(C)O2)C(O)C(C)O1 (stereo partly drawn)
T/C (endpoint: mean tumor weight, dose: 0.06 mg/kg/injection, schedule: Q01DX011 (ip), vehicle: saline, higher = larger tumour): 89 % of control and 102 % of control

C[C@]12C=CC(=O)C=C1CC[C@@H]1[C@@H]2C(=O)C[C@@]2(C)[C@H]1CC[C@]2(O)C(=O)CO
T/C (endpoint: mean tumor weight, dose: 0.31 mg/kg/injection, schedule: Q01DX010 (sc), vehicle: steriod suspending solution, higher = larger tumour): 81 % of control
T/C (endpoint: mean tumor weight, dose: 0.62 mg/kg/injection, schedule: Q01DX010 (sc), vehicle: steriod suspending solution, higher = larger tumour): 124 % of control
T/C (endpoint: mean tumor weight, dose: 3.1 mg/kg/injection, schedule: Q01DX010 (sc), vehicle: steriod suspending solution, higher = larger tumour): 82 % of control
T/C (endpoint: mean tumor weight, dose: 5.0 mg/kg/injection, schedule: Q01DX010 (sc), vehicle: steriod suspending solution, higher = larger tumour): 59 % of control
T/C (endpoint: mean tumor weight, dose: 6.25 mg/kg/injection, schedule: Q01DX010 (sc), vehicle: steriod suspending solution, higher = larger tumour): 99 % of control
T/C (endpoint: mean tumor weight, dose: 10.0 mg/kg/injection, schedule: Q01DX010 (sc), vehicle: steriod suspending solution, higher = larger tumour): 83 % of control
T/C (endpoint: mean tumor weight, dose: 10.0 mg/kg/injection, schedule: Q01DX010 (sc), vehicle: water, higher = larger tumour): 105 % of control
T/C (endpoint: mean tumor weight, dose: 20.0 mg/kg/injection, schedule: Q01DX010 (sc), vehicle: steriod suspending solution, higher = larger tumour): 68 % of control and 74 % of control
T/C (endpoint: mean tumor weight, dose: 20.0 mg/kg/injection, schedule: Q01DX010 (sc), vehicle: water, higher = larger tumour): 108 % of control
T/C (endpoint: mean tumor weight, dose: 40.0 mg/kg/injection, schedule: Q01DX010 (sc), vehicle: water, higher = larger tumour): 100 % of control
T/C (endpoint: mean tumor weight, dose: 60.0 mg/kg/injection, schedule: Q01DX001 (sc), vehicle: steriod suspending solution, higher = larger tumour): 87 % of control
T/C (endpoint: mean tumor weight, dose: 120.0 mg/kg/injection, schedule: Q01DX001 (sc), vehicle: steriod suspending solution, higher = larger tumour): 34 % of control
T/C (endpoint: median survival time, dose: 2.34 mg/kg/injection, schedule: Q01DX029 (ip), vehicle: saline, higher = longer survival): 82 % of control
T/C (endpoint: median survival time, dose: 4.67 mg/kg/injection, schedule: Q01DX025 (ip), vehicle: saline, higher = longer survival): 96 % of control
T/C (endpoint: median survival time, dose: 9.35 mg/kg/injection, schedule: Q01DX025 (ip), vehicle: saline, higher = longer survival): 100 % of control
T/C (endpoint: median survival time, dose: 9.35 mg/kg/injection, schedule: Q01DX029 (ip), vehicle: saline, higher = longer survival): 98 % of control
T/C (endpoint: median survival time, dose: 9.37 mg/kg/injection, schedule: Q01DX029 (ip), vehicle: saline, higher = longer survival): 89 % of control
T/C (endpoint: median survival time, dose: 18.7 mg/kg/injection, schedule: Q01DX025 (ip), vehicle: saline, higher = longer survival): 88 % of control
T/C (endpoint: median survival time, dose: 18.75 mg/kg/injection, schedule: Q01DX010 (ip), vehicle: saline, higher = longer survival): 101 % of control
T/C (endpoint: median survival time, dose: 37.5 mg/kg/injection, schedule: Q01DX025 (ip), vehicle: saline, higher = longer survival): 75 % of control
T/C (endpoint: median survival time, dose: 75.0 mg/kg/injection, schedule: Q01DX010 (sc), vehicle: saline, higher = longer survival): 153 % of control
T/C (endpoint: median survival time, dose: 75.0 mg/kg/injection, schedule: Q01DX025 (ip), vehicle: saline, higher = longer survival): 59 % of control
T/C (endpoint: median survival time, dose: 150.0 mg/kg/injection, schedule: Q01DX010 (sc), vehicle: saline, higher = longer survival): 47 % of control
T/C (endpoint: median survival time, dose: 150.0 mg/kg/injection, schedule: Q01DX025 (ip), vehicle: saline, higher = longer survival): 46 % of control
T/C (endpoint: median survival time, dose: 150.0 mg/kg/injection, schedule: Q01DX029 (ip), vehicle: saline, higher = longer survival): 42 % of control
T/C (endpoint: median survival time, dose: 300.0 mg/kg/injection, schedule: Q01DX010 (sc), vehicle: saline, higher = longer survival): 39 % of control
T/C (endpoint: median survival time, dose: 600.0 mg/kg/injection, schedule: Q01DX010 (sc), vehicle: saline, higher = longer survival): 34 % of control

Cn1cnc([N+](=O)[O-])c1Sc1nc(N)nc2nc[nH]c12
T/C [1]: 53 % of control
T/C (endpoint: mean tumor weight, dose: 5.0 mg/kg/injection, schedule: Q01DX010 (ip), vehicle: saline, higher = larger tumour): 62 % of control
T/C (endpoint: mean tumor weight, dose: 10.0 mg/kg/injection, schedule: Q01DX010 (ip), vehicle: saline, higher = larger tumour): 37 % of control

CC(C)(c1ccccc1)c1ccc(O)cc1
T/C (endpoint: mean tumor weight, dose: 50.0 mg/kg/injection, schedule: Q01DX010 (ip), vehicle: carboxymethylcellulose (CMC), higher = larger tumour): 91 % of control
T/C (endpoint: mean tumor weight, dose: 100.0 mg/kg/injection, schedule: Q01DX010 (ip), vehicle: carboxymethylcellulose (CMC), higher = larger tumour): 109 % of control
T/C (endpoint: mean tumor weight, dose: 200.0 mg/kg/injection, schedule: Q01DX010 (ip), vehicle: carboxymethylcellulose (CMC), higher = larger tumour): 108 % of control

Reference: PubChem BioAssay AID290 (DTP/NCI, 2004)
